Common to all, as to test: Field plot weed control study, % control
Holding throughout (type): in vivo
What all share (settings): adjuvant use rate 1.0% wt/wt with glyphosate baseline

The subject of one assay is Amaranthus sp. (LIUSS). The protocol:
(§1) The efficacy evaluation was conducted by a field plot study with selected weeds. They are Linum sp. (AMSS), Amaranthus sp. (LIUSS), Helianthus sp. (HELSS), and Zea mays (ZEAMX). The field plot size is 400 square feet (10×40 ft), with three replications arranged in a randomized complete block design. Soil description: 15.3% sand, 53.9% silt, and 30.8% clay; Organic material content: 6.2%; pH: 7.5.
(§2) Product application was made using a backpack spray device, Blackout. Operation pressure: 40 psi. Nozzle: TT 11001; Spray volute: 8.5 gallon/acre.
(§3) Environmental condition during application: Air temperature—87 degree F.; Relative humidity—39%; Wind—NE, 5 mph; Soil temperature—71 degree F.; Cloud cover—50%.
(§4) Weeds were evaluated for percent control at 14 days and 28 days following application.
(§5) Sliding rating scale used: 0 indicating no control, up to 100 indicating complete control of weed species as compared to the untreated check.

In the next assay the test system is Helianthus sp. (HELSS). The protocol:
as §1, §2, §3, §4, §5

In the next assay the test system is Linum sp. (AMSS). As for the experimental part: as §1, §2, §3, §4, §5
The test system of another assay is Zea mays (ZEAMX). The protocol: as §1, §2, §3, §4, §5

From US20180220646A1, “AMS-Free Adjuvants for Water Conditioning and Agricultural Formulations” (RHODIA OPERATIONS, priority 2017, published 2018) come the findings set out here.

With `C[N+](C)(C)C.C[N+](C)(C)C.O=S(=O)([O-])[O-]` [Tetramethylamine Sulfate], in the assay on Amaranthus sp. (LIUSS), the “% Control at 14 days LIUSS” value is 46.7% and the “% Control at 28 days LIUSS” value is recorded as 46.7%. Moreover, in the assay on Helianthus sp. (HELSS), the “% Control at 14 days HELSS” value is 86.7% and the “% Control at 28 days HELSS” value is on record as 85%. In the assay on Linum sp. (AMSS), the “% Control at 14 days AMSS” value amounted to 51.7% and the “% Control at 28 days AMSS” value was determined as 58.3%. Also, in the assay with Zea mays (ZEAMX), the “% Control at 14 days ZEAMX” value is listed as 56.7% and the “% Control at 28 days ZEAMX” value turned out to be 85%.

Turning to Choline Citrate, in the assay on Amaranthus sp. (LIUSS), the “% Control at 14 days LIUSS” value was found to be 71.7% and the “% Control at 28 days LIUSS” value came to 86.7%. Further, in the assay with Helianthus sp. (HELSS), the “% Control at 14 days HELSS” value is 89.3% and the “% Control at 28 days HELSS” value stood at 95%. Besides, in the assay with Linum sp. (AMSS), the “% Control at 14 days AMSS” value was 61.7% and the “% Control at 28 days AMSS” value was 63.3%. In addition, in the assay on Zea mays (ZEAMX), the “% Control at 14 days ZEAMX” value stood at 68.3% and the “% Control at 28 days ZEAMX” value is given as 90%.

Turning to Choline etidronic acid, in the assay with Amaranthus sp. (LIUSS), the “% Control at 14 days LIUSS” value amounted to 76% and the “% Control at 28 days LIUSS” value is reported as 80%. For the same compound, in the assay with Helianthus sp. (HELSS), the “% Control at 14 days HELSS” value is reported as 91.7% and the “% Control at 28 days HELSS” value worked out at 84%. For the same compound, in the assay on Linum sp. (AMSS), the “% Control at 14 days AMSS” value was 70% and the “% Control at 28 days AMSS” value stood at 70%. For the same compound, in the assay with Zea mays (ZEAMX), the “% Control at 14 days ZEAMX” value stood at 65% and the “% Control at 28 days ZEAMX” value was found to be 66.7%.

Turning to Choline salt of Sulfuric Acid, in the assay on Amaranthus sp. (LIUSS), the “% Control at 14 days LIUSS” value amounted to 40% and the “% Control at 28 days LIUSS” value worked out at 43.3%. In addition, in the assay with Helianthus sp. (HELSS), the “% Control at 14 days HELSS” value was 88.3% and the “% Control at 28 days HELSS” value is recorded as 95%. In addition, in the assay with Linum sp. (AMSS), the “% Control at 14 days AMSS” value was 70% and the “% Control at 28 days AMSS” value turned out to be 70%. For the same compound, in the assay on Zea mays (ZEAMX), the “% Control at 14 days ZEAMX” value came out at 55% and the “% Control at 28 days ZEAMX” value is 83.3%.
